Key:
[1] = Thermodynamic dissolution properties from Van't Hoff and Gibbs equations; assay type: physicochemical
From the text: The Gibbs and […] equations were used to determine the thermodynamic parameters of dissolution. A mean harmonic temperature of 305.55 K was utilized for the calculations, which were based on a temperature range of 298.15 K to 313.15 K [35]. […] On the other hand, ΔHsolno can be calculated by plotting lnx1 versus 1/T-1/Thm which is called van’t Hoff plot:16 ΔHsolno=-R(∂lnx1/∂(1/T-1/Thm))P 17 ΔGsolno=-RThm×intercept
By solving Eqs. 16 and 17, we can determine the values of the parameters ΔHsolno and ΔGsolno . The standard molar entropy of dissolution, ΔSsolno , can then be calculated using the following equation [40–42]:18 ΔSsolno=ΔHsolno-ΔGsolno/Thm
The relative contributions of entropy and enthalpy to the standard molar Gibbs free energy of dissolution of ACP are explained by Eqs. 17, 18, as shown by the symbols ξH and ξTS , respectively:19 %ξH=ΔHsolno/ΔHsolno+TΔSsolno×100 20 %ξTS=TΔSsolno/ΔHsolno+TΔSsolno×100

[2] = 298.15 K, methanol + water, 0.1 methanol weight fraction; cited from earlier work
[3] = water+[DEA]La w3=0.0000, mean temperature 305.55 K
[4] = water+[DEA]La w3=0.0200, mean temperature 305.55 K
[5] = water+[DEA]La w3=0.0500, mean temperature 305.55 K
[6] = water+[DEA]La w3=0.0700, mean temperature 305.55 K
[7] = water+[DEA]La w3=0.1000, mean temperature 305.55 K
[8] = water+[DEA]La w3=0.1500, mean temperature 305.55 K
[9] = water+[DEA]La w3=0.2000, mean temperature 305.55 K
[10] = water+[MEA]La w3=0.0000, mean temperature 305.55 K
[11] = water+[MEA]La w3=0.0200, mean temperature 305.55 K
[12] = water+[MEA]La w3=0.0500, mean temperature 305.55 K
[13] = water+[MEA]La w3=0.0700, mean temperature 305.55 K
[14] = water+[MEA]La w3=0.1000, mean temperature 305.55 K
[15] = water+[MEA]La w3=0.1500, mean temperature 305.55 K
[16] = water+[MEA]La w3=0.2000, mean temperature 305.55 K
[17] = water+[TEA]La w3=0.0000, mean temperature 305.55 K
[18] = water+[TEA]La w3=0.0200, mean temperature 305.55 K
[19] = water+[TEA]La w3=0.0500, mean temperature 305.55 K
[20] = water+[TEA]La w3=0.0700, mean temperature 305.55 K
[21] = water+[TEA]La w3=0.1000, mean temperature 305.55 K
[22] = water+[TEA]La w3=0.1500, mean temperature 305.55 K
[23] = water+[TEA]La w3=0.2000, mean temperature 305.55 K

- TMΔHsoln∘ [1, 3]: 2.289 kcal/mol
- ΔGsoln∘ [1, 3]: 3.6702 kcal/mol
- ΔHsoln∘ [1, 3]: 5.9591 kcal/mol
- ξH [1, 3]: 72.250%
- ξTS [1, 3]: 27.750%
- TMΔHsoln∘ [1, 4]: 1.438 kcal/mol
- ΔGsoln∘ [1, 4]: 3.489 kcal/mol
- ΔHsoln∘ [1, 4]: 4.9264 kcal/mol
- ξH [1, 4]: 77.411%
- ξTS [1, 4]: 22.589%
- TMΔHsoln∘ [1, 5]: 0.108 kcal/mol
- ΔGsoln∘ [1, 5]: 3.3989 kcal/mol
- ΔHsoln∘ [1, 5]: 3.5065 kcal/mol
- ξH [1, 5]: 97.024%
- ξTS [1, 5]: 2.976%
- ΔGsoln∘ [1, 6]: 3.3511 kcal/mol
- ΔHsoln∘ [1, 6]: 3.1637 kcal/mol
- ξH [1, 6]: 94.407%
- ξTS [1, 6]: 5.593%
- TMΔHsoln∘ [1, 7]: 0.679 kcal/mol
- ΔGsoln∘ [1, 7]: 3.2808 kcal/mol
- ΔHsoln∘ [1, 7]: 3.9601 kcal/mol
- ξH [1, 7]: 85.361%
- ξTS [1, 7]: 14.639%
- TMΔHsoln∘ [1, 8]: 0.123 kcal/mol
- ΔGsoln∘ [1, 8]: 3.2333 kcal/mol
- ΔHsoln∘ [1, 8]: 3.3559 kcal/mol
- ξH [1, 8]: 96.472%
- ξTS [1, 8]: 3.528%
- TMΔHsoln∘ [1, 9]: 0.3011 kcal/mol
- ΔGsoln∘ [1, 9]: 3.1683 kcal/mol
- ΔHsoln∘ [1, 9]: 3.4692 kcal/mol
- ξH [1, 9]: 92.015%
- ξTS [1, 9]: 7.985%
- TMΔHsoln∘ [1, 10]: 2.289 kcal/mol
- ΔGsoln∘ [1, 10]: 3.6702 kcal/mol
- ΔHsoln∘ [1, 10]: 5.9591 kcal/mol
- ξH [1, 10]: 72.250%
- ξTS [1, 10]: 27.750%
- TMΔHsoln∘ [1, 11]: 1.168 kcal/mol
- ΔGsoln∘ [1, 11]: 3.4405 kcal/mol
- ΔHsoln∘ [1, 11]: 4.609 kcal/mol
- ξH [1, 11]: 79.777%
- ξTS [1, 11]: 20.223%
- ΔGsoln∘ [1, 12]: 3.3752 kcal/mol
- ΔHsoln∘ [1, 12]: 3.3439 kcal/mol
- ξH [1, 12]: 99.076%
- ξTS [1, 12]: 0.924%
- ΔGsoln∘ [1, 13]: 3.2777 kcal/mol
- ΔHsoln∘ [1, 13]: 2.9484 kcal/mol
- ξH [1, 13]: 89.953%
- ξTS [1, 13]: 10.047%
- ΔGsoln∘ [1, 14]: 3.2139 kcal/mol
- ΔHsoln∘ [1, 14]: 3.1785 kcal/mol
- ξH [1, 14]: 98.898%
- ξTS [1, 14]: 1.102%
- TMΔHsoln∘ [1, 15]: 0.4615 kcal/mol
- ΔGsoln∘ [1, 15]: 3.1248 kcal/mol
- ΔHsoln∘ [1, 15]: 3.5863 kcal/mol
- ξH [1, 15]: 88.600%
- ξTS [1, 15]: 11.400%
- TMΔHsoln∘ [1, 16]: 0.2928 kcal/mol
- ΔGsoln∘ [1, 16]: 3.0667 kcal/mol
- ΔHsoln∘ [1, 16]: 3.3595 kcal/mol
- ξH [1, 16]: 91.982%
- ξTS [1, 16]: 8.018%
- TMΔHsoln∘ [1, 17]: 2.289 kcal/mol
- ΔGsoln∘ [1, 17]: 3.6702 kcal/mol
- ΔHsoln∘ [1, 17]: 5.9591 kcal/mol
- ξH [1, 17]: 72.250%
- ξTS [1, 17]: 27.750%
- TMΔHsoln∘ [1, 18]: 1.658 kcal/mol
- ΔGsoln∘ [1, 18]: 3.5837 kcal/mol
- ΔHsoln∘ [1, 18]: 5.2416 kcal/mol
- ξH [1, 18]: 75.970%
- ξTS [1, 18]: 24.030%
- TMΔHsoln∘ [1, 19]: 0.196 kcal/mol
- ΔGsoln∘ [1, 19]: 3.5172 kcal/mol
- ΔHsoln∘ [1, 19]: 3.713 kcal/mol
- ξH [1, 19]: 94.992%
- ξTS [1, 19]: 5.008%
- TMΔHsoln∘ [1, 20]: 0.0473 kcal/mol
- ΔGsoln∘ [1, 20]: 3.4422 kcal/mol
- ΔHsoln∘ [1, 20]: 3.4895 kcal/mol
- ξH [1, 20]: 98.659%
- ξTS [1, 20]: 1.341%
- TMΔHsoln∘ [1, 21]: 0.7775 kcal/mol
- ΔGsoln∘ [1, 21]: 3.3774 kcal/mol
- ΔHsoln∘ [1, 21]: 4.1549 kcal/mol
- ξH [1, 21]: 84.235%
- ξTS [1, 21]: 15.765%
- TMΔHsoln∘ [1, 22]: 0.3346 kcal/mol
- ΔGsoln∘ [1, 22]: 3.2775 kcal/mol
- ΔHsoln∘ [1, 22]: 3.6121 kcal/mol
- ξH [1, 22]: 91.522%
- ξTS [1, 22]: 8.478%
- TMΔHsoln∘ [1, 23]: 0.4285 kcal/mol
- ΔGsoln∘ [1, 23]: 3.2144 kcal/mol
- ΔHsoln∘ [1, 23]: 3.6429 kcal/mol
- ξH [1, 23]: 89.476%
- ξTS [1, 23]: 10.524%
SMILES: CC(=O)Nc1ccc(O)cc1 [ACP, Acetaminophen]
- ACP solubility [2]: 2.65 × 10^–3 mole fraction

Reference: publication PMC11270923 (BMC Chemistry, 2024)
